Columns and labels:
[1] = target: T1, isolated recombinant JAK1 kinase domain (Homo sapiens, UniProt P23458); assay: JAK1 enzyme assay (Caliper LabChip, Ki); type: biochemical; conditions: 25 μM ATP
T1 construct: The activity of the isolated recombinant JAK1 and JAK2 kinase domain was measured
Outline: (§1)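 Ki values fitted with Morrison tight-binding equation adjusted for ATP-competitive inhibition, using product-to-total peptide ratio read by Caliper LabChip. Reactions: isolated JAK1 or JAK2 kinase domain with N-terminal 5-carboxyfluorescein JAK3-derived peptide, 22° C for 30 min, quenched by EDTA.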

[2] = target: LRRK2 (Homo sapiens, UniProt Q5S007); assay: LRRK2 assay (Life Technologies Adapta, SelectScreen Profiling, IC50); type: biochemical; conditions: for IC50: 75 μM ATP, 10-point curves, read-out: LRRK 2 IC50; for Ratio (LRRK 2 IC50: JAK1 Ki): selectivity ratio LRRK2 IC50 over JAK1 Ki; for selectivity for JAK1 over LRRK2 (in words): 5-sulfanylphenyl compound compared with 5-chlorophenyl matched pair
LRRK2, sequence (Q5S007 970-2527 limits assumed): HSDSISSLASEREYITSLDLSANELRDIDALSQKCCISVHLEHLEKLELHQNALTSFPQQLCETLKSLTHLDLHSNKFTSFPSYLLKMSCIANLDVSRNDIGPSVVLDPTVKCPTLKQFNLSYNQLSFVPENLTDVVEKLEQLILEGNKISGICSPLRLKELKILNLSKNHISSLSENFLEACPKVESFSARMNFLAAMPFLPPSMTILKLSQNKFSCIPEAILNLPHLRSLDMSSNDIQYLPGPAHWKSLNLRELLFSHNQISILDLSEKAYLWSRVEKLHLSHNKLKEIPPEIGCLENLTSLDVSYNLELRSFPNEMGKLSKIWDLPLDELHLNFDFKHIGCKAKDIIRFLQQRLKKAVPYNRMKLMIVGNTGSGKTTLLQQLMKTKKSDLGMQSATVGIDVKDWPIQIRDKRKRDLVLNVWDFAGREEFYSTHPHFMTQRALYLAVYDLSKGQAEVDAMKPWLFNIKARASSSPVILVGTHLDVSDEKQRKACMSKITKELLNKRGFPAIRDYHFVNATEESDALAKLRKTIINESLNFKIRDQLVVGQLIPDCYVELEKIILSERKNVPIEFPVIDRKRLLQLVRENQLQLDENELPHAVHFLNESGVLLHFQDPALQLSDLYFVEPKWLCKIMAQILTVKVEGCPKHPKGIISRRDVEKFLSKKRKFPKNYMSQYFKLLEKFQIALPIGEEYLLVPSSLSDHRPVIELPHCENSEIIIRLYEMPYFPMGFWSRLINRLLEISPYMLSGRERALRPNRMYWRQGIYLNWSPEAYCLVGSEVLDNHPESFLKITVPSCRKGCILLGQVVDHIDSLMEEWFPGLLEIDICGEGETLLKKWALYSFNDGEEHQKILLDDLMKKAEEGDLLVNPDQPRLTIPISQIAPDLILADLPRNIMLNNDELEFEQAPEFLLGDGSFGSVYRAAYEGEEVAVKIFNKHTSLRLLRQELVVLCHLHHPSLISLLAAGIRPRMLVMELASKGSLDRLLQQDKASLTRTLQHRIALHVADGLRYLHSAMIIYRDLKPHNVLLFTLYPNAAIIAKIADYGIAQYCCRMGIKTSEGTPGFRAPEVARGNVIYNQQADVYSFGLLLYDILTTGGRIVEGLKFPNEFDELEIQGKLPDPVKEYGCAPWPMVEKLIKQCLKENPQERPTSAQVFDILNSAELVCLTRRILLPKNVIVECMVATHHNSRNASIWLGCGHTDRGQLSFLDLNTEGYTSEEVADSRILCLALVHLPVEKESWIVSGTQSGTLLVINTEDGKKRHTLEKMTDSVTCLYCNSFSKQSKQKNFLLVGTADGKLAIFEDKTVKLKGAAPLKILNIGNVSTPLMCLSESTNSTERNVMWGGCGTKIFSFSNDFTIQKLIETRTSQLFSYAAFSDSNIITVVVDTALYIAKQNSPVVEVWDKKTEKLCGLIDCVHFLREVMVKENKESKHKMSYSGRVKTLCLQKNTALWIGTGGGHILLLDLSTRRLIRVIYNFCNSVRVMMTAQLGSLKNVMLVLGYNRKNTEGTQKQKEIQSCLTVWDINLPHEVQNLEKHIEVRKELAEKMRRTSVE

[3] = target: T2, isolated recombinant JAK2 kinase domain (Homo sapiens, UniProt O60674); assay: JAK2 enzyme assay (Caliper LabChip, Ki); type: biochemical; conditions: 25 μM ATP
T2 construct: The activity of the isolated recombinant JAK1 and JAK2 kinase domain was measured
T2 sequence (O60674 849-1124 limits assumed): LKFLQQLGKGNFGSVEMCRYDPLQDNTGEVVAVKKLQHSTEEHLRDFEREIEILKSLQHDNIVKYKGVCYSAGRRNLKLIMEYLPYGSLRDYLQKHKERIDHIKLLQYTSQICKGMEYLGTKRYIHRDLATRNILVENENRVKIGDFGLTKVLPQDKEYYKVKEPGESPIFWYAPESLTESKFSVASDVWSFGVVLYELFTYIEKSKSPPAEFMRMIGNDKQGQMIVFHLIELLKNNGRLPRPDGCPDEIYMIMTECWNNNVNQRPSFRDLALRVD
Outline: as §1

[4] = system: JAK1-dependent STAT6 phosphorylation downstream of IL-13 stimulation in BEAS-2B human bronchial epithelial cells; assay: JAK1 pathway assay in BEAS-2B cells (IL-13 stimulated STAT6 phosphorylation, MSD); type: cell-based; conditions: read-out: P-STAT6 BEAS2B + IL13 IC50
Outline: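 BEAS-2B human bronchial epithelial cells, plated the day before in complete growth medium, were preincubated with compound for 1 hr at 37° C (0.2% DMSO final), then stimulated with IL-13 at its EC90 for 15 min. STAT6 phosphorylation in lysates was read by MSD; EC50 was taken as 50% inhibition versus DMSO control.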

T1 sequence (P23458 875-1153 limits assumed): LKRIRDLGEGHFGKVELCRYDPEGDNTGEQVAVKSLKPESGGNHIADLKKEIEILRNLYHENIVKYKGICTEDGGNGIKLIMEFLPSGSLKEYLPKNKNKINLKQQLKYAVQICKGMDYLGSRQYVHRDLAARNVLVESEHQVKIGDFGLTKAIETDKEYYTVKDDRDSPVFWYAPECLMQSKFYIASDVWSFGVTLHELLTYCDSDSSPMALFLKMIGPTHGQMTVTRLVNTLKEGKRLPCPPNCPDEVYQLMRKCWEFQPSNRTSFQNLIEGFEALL

Row | Ki ([1]; Morrison tight binding model) | IC50 [2] | Ratio (LRRK 2 IC50: JAK1 Ki) [2] | Ki ([1]; recombinant JAK1 kinase domain) | Ki [3] | Compound | selectivity for JAK1 over LRRK2 (in words) [2] | IC50 [4]
1 | 0.18 nM | 80.9 nM | 449 |  |  | Cn1cc(NC(=O)c2cnn3cccnc23)c(-c2cc(Cl)ccc2OC(F)F)n1 [A, reference compound] |  | 
2 | 0.4 nM | 431 nM | 1078 |  |  | CC(C)(O)Cn1cc(NC(=O)c2cnn3cccnc23)c(-c2cc(Cl)ccc2OC(F)F)n1 [B, reference compound] |  | 
3 | 0.69 nM | 1030 nM | 1493 |  |  | O=C(Nc1cn(C2CCOCC2)nc1-c1cc(Cl)ccc1OC(F)F)c1cnn2cccnc12 [C, reference compound] |  | 
4 | 0.13 nM | 193 nM | 1485 |  |  | CSc1ccc(OC(F)F)c(-c2nn(C)cc2NC(=O)c2cnn3cccnc23)c1 [D] | greater selectivity for JAK1 over LRRK2 than their 5-chlorophenyl matched pair A | 
5 | 0.25 nM | 2220 nM | 8880 |  |  | CC(C)Sc1ccc(OC(F)F)c(-c2nn(C)cc2NC(=O)c2cnn3cccnc23)c1 [E] | greater selectivity for JAK1 over LRRK2 than their 5-chlorophenyl matched pair A | 
6 |  |  |  | 0.56 nM | 1.1 nM | O=C(Nc1cn(CC(=O)N2CCN(C3CCOCC3)CC2)nc1-c1cc(SC2COC2)ccc1OC(F)F)c1cnn2cccnc12 [Example 184, N-[3-[2-(difluoromethoxy)-5-(oxetan-3-ylsulfanyl)phenyl]-1-[2-oxo-2-(4-tetrahydropyran-4-ylpiperazin-1-yl)ethyl]pyrazol-4-yl]pyrazolo[1,5-a]pyrimidine-3-carboxamide] |  | 74 nM
7 |  |  |  | 0.71 nM | 1.7 nM | CC(F)(F)CNC1CCN(C(=O)Cn2cc(NC(=O)c3cnn4cccnc34)c(-c3cc(SC4COC4)ccc3OC(F)F)n2)CC1 [Example 185, N-[3-[2-(difluoromethoxy)-5-(oxetan-3-ylsulfanyl)phenyl]-1-[2-[4-(2,2-difluoropropylamino)-1-piperidyl]-2-oxo-ethyl]pyrazol-4-yl]pyrazolo[1,5-a]pyrimidine-3-carboxamide] |  | 47 nM
8 |  |  |  | 0.65 nM | 1.8 nM | CC(C)(C#N)CNC1CCN(C(=O)Cn2cc(NC(=O)c3cnn4cccnc34)c(-c3cc(SC4COC4)ccc3OC(F)F)n2)CC1 [Example 186, N-[1-[2-[4-[(2-cyano-2-methyl-propyl)amino]-1-piperidyl]-2-oxo-ethyl]-3-[2-(difluoromethoxy)-5-(oxetan-3-ylsulfanyl)phenyl]pyrazol-4-yl]pyrazolo[1,5-a]pyrimidine-3-carboxamide] |  | 90 nM
9 |  |  |  | 0.54 nM | 1.3 nM | CN(C1CCN(C(=O)Cn2cc(NC(=O)c3cnn4cccnc34)c(-c3cc(SC4COC4)ccc3OC(F)F)n2)CC1)C1COC1 [Example 187, N-[3-[2-(difluoromethoxy)-5-(oxetan-3-ylsulfanyl)phenyl]-1-[2-[4-[methyl(oxetan-3-yl)amino]-1-piperidyl]-2-oxo-ethyl]pyrazol-4-yl]pyrazolo[1,5-a]pyrimidine-3-carboxamide] |  | 250 nM
10 |  |  |  | 0.62 nM | 1.3 nM | O=C(Nc1cn(CC(=O)N2CCN(CC3CCOCC3)CC2)nc1-c1cc(SC2COC2)ccc1OC(F)F)c1cnn2cccnc12 [Example 188, N-[3-[2-(difluoromethoxy)-5-(oxetan-3-ylsulfanyl)phenyl]-1-[2-oxo-2-[4-(tetrahydropyran-4-ylmethyl)piperazin-1-yl]ethyl]pyrazol-4-yl]pyrazolo[1,5-a]pyrimidine-3-carboxamide] |  | 48 nM
11 |  |  |  | 1 nM | 3 nM | N#CC1(CNC2CCN(C(=O)Cn3cc(NC(=O)c4cnn5cccnc45)c(-c4cc(SC5COC5)ccc4OC(F)F)n3)CC2)CC1 [Example 189, N-[1-[2-[4-[(1-cyanocyclopropyl)methylamino]-1-piperidyl]-2-oxo-ethyl]-3-[2-(difluoromethoxy)-5-(oxetan-3-ylsulfanyl)phenyl]pyrazol-4-yl]pyrazolo[1,5-a]pyrimidine-3-carboxamide] |  | 770 nM
12 |  |  |  | 1.1 nM | 3.8 nM | CN1CCN(C2CCN(C(=O)Cn3cc(NC(=O)c4cnn5cccnc45)c(-c4cc(SC5COC5)ccc4OC(F)F)n3)CC2)CC1 [Example 190, N-[3-[2-(difluoromethoxy)-5-(oxetan-3-ylsulfanyl)phenyl]-1-[2-[4-(4-methylpiperazin-1-yl)-1-piperidyl]-2-oxo-ethyl]pyrazol-4-yl]pyrazolo[1,5-a]pyrimidine-3-carboxamide] |  | 170 nM
13 |  |  |  | 0.44 nM | 1 nM | COC(=O)N1CCN(CC2CCN(C(=O)Cn3cc(NC(=O)c4cnn5cccnc45)c(-c4cc(SC5COC5)ccc4OC(F)F)n3)CC2)CC1 [Example 191, methyl 4-[[1-[2-[3-[2-(difluoromethoxy)-5-(oxetan-3-ylsulfanyl)phenyl]-4-(pyrazolo[1,5-a]pyrimidine-3-carbonylamino)pyrazol-1-yl]acetyl]-4-piperidyl]methyl]piperazine-1-carboxylate] |  | 49 nM
14 |  |  |  | 0.12 nM | 0.055 nM | CCSc1ccc(OC(F)F)c(-c2n[nH]cc2NC(=O)c2cnn3cccnc23)c1 [Example 192, N-[3-[2-(difluoromethoxy)-5-ethylsulfanyl-phenyl]-1H-pyrazol-4-yl]pyrazolo[1,5-a]pyrimidine-3-carboxamide] |  | 2 nM
15 |  |  |  | 0.36 nM | 0.57 nM | CCSc1ccc(OC(F)F)c(-c2nn(CC(=O)N3CCC(N4CCOCC4)CC3)cc2NC(=O)c2cnn3cccnc23)c1 [Example 193] |  | 17 nM
16 |  |  |  | 0.31 nM | 0.63 nM | CCSc1ccc(OC(F)F)c(-c2nn(CC(=O)N3CCC(N(C)CCC#N)CC3)cc2NC(=O)c2cnn3cccnc23)c1 [Example 194, N-[1-[2-[4-[2-cyanoethyl(methyl)amino]-1-piperidyl]-2-oxo-ethyl]-3-[2-(difluoromethoxy)-5-ethylsulfanyl-phenyl]pyrazol-4-yl]pyrazolo[1,5-a]pyrimidine-3-carboxamide] |  | 25 nM
17 | 0.29 nM |  |  |  |  | Cn1cc(NC(=O)c2cnn3cccnc23)c(-c2cc(SC3COC3)ccc2OC(F)F)n1 [F] | greater selectivity for JAK1 over LRRK2 than their 5-chlorophenyl matched pair A | 
18 | 0.16 nM |  |  |  |  | Cn1cc(NC(=O)c2cnn3cccnc23)c(-c2cc(SC(CF)CF)ccc2OC(F)F)n1 [G] | greater selectivity for JAK1 over LRRK2 than their 5-chlorophenyl matched pair A | 
19 |  |  |  |  |  | CSc1ccc(OC(F)F)c(-c2nn(CC(C)(C)O)cc2NC(=O)c2cnn3cccnc23)c1 [H] | greater selectivity for JAK1 over LRRK2 than its 5-chlorophenyl matched pair B | 
20 | 0.67 nM |  |  |  |  | CSc1ccc(OC(F)F)c(-c2nn(C3CCOCC3)cc2NC(=O)c2cnn3cccnc23)c1 [I] | greater selectivity for JAK1 over LRRK2 than its 5-chlorophenyl matched pair C | 
21 | 0.3 nM | 2450 nM | 8167 |  |  | COC(=O)N1CCN(CC2CCN(C(=O)Cn3cc(NC(=O)c4cnn5cccnc45)c(-c4cc(SC)ccc4OC(F)F)n3)CC2)CC1 [J] | high degree of JAK1 over LRRK2 selectivity | 
22 | 0.2 nM | 1700 nM | 8500 |  |  | CSc1ccc(OC(F)F)c(-c2nn(CC(=O)N3CCC(N4CCC[C@@H](C#N)C4)CC3)cc2NC(=O)c2cnn3cccnc23)c1 [K] | high degree of JAK1 over LRRK2 selectivity | 

— patent US20180265515A1 (Genentech, Inc., priority 2015, published 2018)
